# Ends that are not written are not given here.
# Assays:
# [1] = system: subjects with schizophrenia; assay: Expanded two-week intranasal oxytocin study in schizophrenia, 25 subjects (Example 8); format: in vivo, human; details: for Brüne 2nd false belief, M / Brüne 3nd false belief, M / Brüne deception, M / PANSS general score, M / PANSS negative score, M / PANSS positive score, M / PANSS social items mean (suspiciousness, hostility, social withdrawal passive/active, uncooperativeness), M / PANSS total score, M / Paranoia Scale, M / Trustworthiness task (ratings of untrustworthy faces), M: N = 14
# Description: (§1) This was a randomized, double blind, placebo-controlled 2-week treatment trial. Screening of each subject included a review of psychiatric and medical history, physical examination, an ECG, and blood and urine collection for standard laboratory tests. Within 1 week after screening, baseline social cognition measures were obtained followed by psychiatric ratings. Daily intranasal treatments were initiated after baseline assessments. Social cognition measures and psychiatric ratings were repeated beginning 50 minutes after the AM dose of study medication on treatment day 14. The social cognition instruments were the Brüne Theory of Mind Picture Stories Task (Brüne, (2003) Social cognition and behaviour in schizophrenia. In Brüne, Ribbert, Schiefenhövel (eds.) The social brain-evolution and pathology. John Wiley & Sons; Chichester, pp. 277-313) and the Trustworthiness Task (Adolphs et al., Nature 393: 470-474 (1998)). Psychiatric measures included the Positive and Negative Symptom Scale (PANSS) (Kay et al., Schizophr. Bull. 13: 261-276 (1987))) and the Paranoia Scale (Fenigstein & Vanable, J. Pers. Soc. Psych. 62: 129-138 (1992))). The first 10 subjects were studied as inpatients on a clinical research unit and the last 10 subjects were studied in an outpatient research clinic. Blood and urine laboratory tests, ECGs and body weights were obtained at screening and treatment day 14 in all subjects and also on treatment days 3 and 7 in inpatients.
# (§2) Subjects remained on their pre-study medication regimen and doses throughout the treatment trial. They self-administered intranasal study drug twice daily; before breakfast and before dinner. Each dose consisted of six 0.1 ml insufflations (alternating between the left and right nostril) of oxytocin spray containing approximately 24 international units of oxytocin (SYNTOCINON® Spray, Novartis) or placebo. Outpatient compliance with test treatments was monitored by weighing spray vials before they were dispensed and after the morning dose on treatment day 14.
# We have expanded our double blind, placebo-controlled pilot study described in Example 7 to include 25 subjects with schizophrenia in which we compared the effects of 14 days of twice daily intranasal oxytocin (24 IU/dose, N=14) vs. placebo (N=11) administration on PANSS (Positive and Negative Symptom Scale) total and PANSS item scores, subject self-ratings on the Paranoia Scale and performance on social cognition tests (the Brüne Theory of Mind Picture Stories Task and the Trustworthiness Task). As in the smaller study, all subjects' symptoms and psychotropic medication regimens were stable for ≧1 month prior to the treatment trial. Medication doses remained the same during the study period.
# Because of our interest in oxytocin effects on social function in schizophrenia, we focused our statistical analysis on an a priori subset of PANSS items: P6 (suspiciousness/persecution [paranoia]), P7 (hostility), N4 (passive/apathetic social withdrawal), G8 (uncooperativeness) and G16 (active social avoidance). These items were used as inclusion criteria for this study (see description in Example 7). Values on these items are highly correlated in our sample (Cronbach's alpha=0.84).
# [2] = system: alcohol dependent patients; assay: Double-blind, placebo controlled trial of twice daily intranasal oxytocin for alcohol withdrawal (Example 2); format: in vivo, human
# Description: This is a double-blind, placebo controlled comparison of the efficacy of twice daily intranasal administration of oxytocin and placebo (saline) in reducing alcohol withdrawal symptoms, the number of bouts of withdrawal during which symptoms are of sufficient magnitude requiring lorazepam treatment (see definitions below) and the amount of lorazepam required to resolve withdrawal bouts. Treatment group assignment are random within each sex. Subjects are patients admitted to UNC Hospitals or the UNC CTRC for medical detoxification. Each treatment group is composed of up to 40 subjects. The study statistician constructs a randomization plan to randomize 80 subjects to 2 groups of 40 subjects each with a blocksize of 4. This is a permuted blocksize as this is a blind study.
# Informed consent is obtained the morning after admission to the UNC Hospitals medical units or before the outpatient screening evaluation before admission to the UNC CTRC. After consent is obtained, subjects are randomly assigned to a treatment group (oxytocin or placebo). Prior to receiving their first intranasal treatment, an ECG is obtained and blood drawn to obtain serum for assay of cytokine and allopregnanolone concentrations. Subjects also rate their symptoms using the Alcohol Withdrawal Symptom Checklist (AWSC, Pittman et al., Alcohol Clin. Exp. Res. 31: 612-618 (2007)) prior to receiving their first test dose. These procedures are done/overseen by research nurses or physicians. Subjects usually receive their first intranasal test dose between 1000 and 1200 hours, which consists of 6 insufflations of SYNTOCINON® Spray (approximately 24 IU) or placebo, with each insufflation given 30 seconds apart and alternating between nostrils. Test doses taken again at 1700 hr later that day (Admission Day 1) and at 0900 and 1700 hr on Admission Days 2 and 3. Oxytocin test treatments are administered from 5 ml intranasal spray vials designed to deliver 0.1 ml metered volume per insufflation. The placebo treatments are administered from 60 ml intranasal spray vials (each containing 30 ml of solution) also designed to deliver 0.1 ml metered volume per insufflation. Vials containing oxytocin and placebo spray are blind labeled by the UNC Investigational Drug Service. Research nurses or physicians oversee subject self-administration of all intranasal test doses. After enrollment on Admission day 1 and in the morning on Admission days 2 and 3, subjects are given multiple copies of the AWSC questionnaire and requested to complete one each time the unit nurses do CIWA ratings. These questionnaires are retrieved by research staff the following morning. Shortly after the morning test dose on Admission days 2 and 3, subjects complete the Alcohol Craving Visual Analog Scales (ACVAS), the Penn Alcohol Craving Scale (PACS), and the Profile of Mood States (McNair et al., (1971) EDITS manual for the profile of mood states. San Diego, Calif. Educational and Industrial Testing Service). In addition, a consumption diary is administered and given to the subject to quantify the amount of alcohol participants have been consuming prior to admission in the study. On Days 2 and 3, research nurses also draw (and subsequently process) blood serum samples to assay cytokine and allopregnanolone concentrations shortly after the morning test dose. Additional blood is drawn after the morning test dose on admission day 2 to obtain serum for tests to be run (magnesium, Cl, Ca, Na, K, BUN, creatinine, and GGT). Another ECG is also obtained shortly after the morning test treatment on Admission day 2. Research staff retrieves on a daily basis CIWA ratings and vital sign measurements obtained on each subject from their electronic medical record.
# In all subjects, lorazepam doses are administered PO or IV (if subjects cannot take medication PO) whenever CIWA ratings are ≧12. CIWA ratings are obtained 1 hr after the initial dose of lorazepam and another dose administered if CIWA ratings ≧10. […]
# [3] = system: patients with paranoid or undifferentiated schizophrenia; assay: Randomized, double blind, placebo-controlled 2-week intranasal oxytocin trial in schizophrenia (Example 7); format: in vivo, human
# Description: Twenty-three subjects were initially enrolled; 2 dropped out before randomization to treatment and 1 dropped out early because they developed an upper respiratory infection; the remaining 20 completed the protocol and constitute our study sample. Inclusion criteria were: 18-55 years of age, DSM-IV diagnosis of paranoid or undifferentiated schizophrenia ≧1 year, PANSS total score ≧60, PANSS suspiciousness/persecutory item score ≧4 or 3 on this item and ≧3 on at least one other social behavior-relevant PANSS item (hostility, passive/apathetic social withdrawal, uncooperativeness, active social withdrawal), treatment with one or more standard antipsychotic medications, stability of medication doses and symptoms ≧1 month.
# as §1, §2
# All dependent variables were examined for normality and skewness prior to analyses. We compared oxytocin and placebo group means using an unpaired t test for the following baseline variables: demographic, psychiatric history and diagnosis, inpatient versus outpatient status, social cognition and psychiatric measures. We performed a paired t test within each treatment group examining changes from baseline to two weeks on the following variables: biological (laboratory test values, vital signs), social cognition measures (Brüne Task, Trustworthiness Task), and psychiatric measures (PANSS total and subscales, Paranoia Scale). To compare the treatment groups over time on social cognition and psychiatric variables, we used analysis of covariance controlling for the baseline measure of the dependent variable.
# [4] = Burbach et al., Eur. J. Pharmacol. 94: 125-131 (1983); cited from earlier work
# [5] = ANCOVA controlling for baseline, 14-day treatment
molecule,measurement,setting,value
"CC[C@H](C)[C@@H]1NC(=O)[C@H](Cc2ccc(O)cc2)NC(=O)[C@@H](N)CSSC[C@@H](C(=O)N2CCC[C@H]2C(=O)N[C@@H](CC(C)C)C(=O)NCC(N)=O)NC(=O)[C@H](CC(N)=O)NC(=O)[C@H](CCC(N)=O)NC1=O [Oxytocin, oxytocin]",declines in PANSS positive symptom subscale scores compared to the Placebo group,"[1]; ANOVA, F=3.10, p=0.0923",trends toward significantly greater declines
same,declines in PANSS social items mean scores compared to the Placebo group,"[1]; ANOVA, F=3.15, p=0.0898",trends toward significantly greater declines
same,decline in PANSS total score compared to the Placebo group,"[1]; ANOVA, F=4.29, p=0.05",significantly greater decline
same,"Brüne 2nd false belief, M",[1]; Baseline,1.93
same,"Brüne 3nd false belief, M",[1]; Baseline,1.93
same,"Brüne deception, M",[1]; Baseline,2.43
same,"PANSS general score, M",[1]; Baseline,38.21
same,"PANSS negative score, M",[1]; Baseline,20.36
same,"PANSS positive score, M",[1]; Baseline,19.79
same,"PANSS social items mean (suspiciousness, hostility, social withdrawal passive/active, uncooperativeness), M",[1]; Baseline,2.91
same,"PANSS total score, M",[1]; Baseline,79.00
same,"Paranoia Scale, M",[1]; Baseline,48.00
same,"Trustworthiness task (ratings of untrustworthy faces), M",[1]; Baseline,−15.71
same,"PANSS total score, M","[1]; Tx Day 14, 24 IU/dose intranasal twice daily",69.21
same,"Brüne 2nd false belief, M",[1]; Tx Day 14,2.29
same,"Brüne 3nd false belief, M",[1]; Tx Day 14,2.43
same,"Brüne deception, M",[1]; Tx Day 14,2.86
same,"PANSS general score, M",[1]; Tx Day 14,34.07
same,"PANSS negative score, M",[1]; Tx Day 14,18.00
same,"PANSS positive score, M",[1]; Tx Day 14,17.14
same,"PANSS social items mean (suspiciousness, hostility, social withdrawal passive/active, uncooperativeness), M",[1]; Tx Day 14,2.39
same,"Paranoia Scale, M",[1]; Tx Day 14,45.00
same,"Trustworthiness task (ratings of untrustworthy faces), M",[1]; Tx Day 14,−10.36
same,adverse events,"[2]; 3 days of protocol, all 10 subjects",no unexpected adverse events
same,"Total lorazepam (mg) required to control withdrawal symptoms, Mean","[2]; 3 days of protocol, intranasal approx. 24 IU twice daily, N=6",2.33 mg
same,Mean CIWA Day 1,"[2]; Day 1, intranasal approx. 24 IU twice daily, N=6",2.40
same,Mean AWSC Day 1,"[2]; Day 1, self-rating, N=6",6.17
same,Mean ACVAS Day 2,"[2]; Day 2, 100 mm Alcohol Craving Visual Analog Scale, N=6",33.83
same,Mean CIWA Day 2,"[2]; Day 2, N=6",0.81
same,Mean PACS Day 2,"[2]; Day 2, Penn Alcohol Craving Scale, N=6",13.33
same,Mean AWSC Day 2,"[2]; Day 2, self-rating, N=6",5.40
same,Mean ACVAS Day 3,"[2]; Day 3, 100 mm Alcohol Craving Visual Analog Scale, N=6",11.23
same,Mean CIWA Day 3,"[2]; Day 3, N=6",1.52
same,Mean PACS Day 3,"[2]; Day 3, Penn Alcohol Craving Scale, N=6",9.33
same,Mean AWSC Day 3,"[2]; Day 3, self-rating, N=6",3.78
same,subjects that required no lorazepam treatment at all,"[2]; oxytocin treatment group, 3-day detoxification",4 of the 6
same,"PANSS general subscale scores, LS mean",[3]; [5],34.34
same,"PANSS total scores, Least squared (LS) mean",[3]; [5],70.56
same,group differences in change over the treatment period for other PANSS or social cognition variables,"[3]; ANCOVA, oxytocin vs placebo",no group differences
same,decline in PANSS general subscale scores compared to placebo,"[3]; ANCOVA, F=3.78, p=0.069",trend toward a significantly greater decline
same,decline in PANSS total scores compared to the placebo group,"[3]; ANCOVA, F=4.60, p=0.047",significantly greater decline
same,"change in other Brüne Task measures (second order belief, third order false belief, recognition of cheating)",[3]; baseline to treatment day 14,no changes that approached significance
"oxytocin fragment 4-9: biologically active fragment of oxytocin, reported to be more potent than the full-length molecule (QNCPLG; ends and bridges not checked; UniProt P01178 23-28, looked up, fragment)",potency relative to the full-length molecule,[4],more potent than the full-length molecule
